The text below walks through data of the PolyMetriX glass transition set.

SMILES strings stand for the structures.

In turn, `*C(=O)Nc1ccc(Oc2c(C)cc(C(C)(C)c3cc(C)c(Oc4ccc(NC(=O)c5ccc6c(c5)C(=O)N(c5ccc(Oc7ccc(C8(c9ccc(Oc%10ccc(N%11C(=O)c%12ccc(*)cc%12C%11=O)cc%10)cc9)CC9CC8C8CCCC98)cc7)cc5)C6=O)cc4)c(C)c3)cc2C)cc1` (repeat unit) came in with a glass transition temperature of 276.00 °C. On to `*C(=O)Oc1c(C)cc(C(C)(C)c2cc(C)c(OC(=O)c3ccc4c(c3)C(=O)N(c3ccc(-c5ccc(N6C(=O)c7ccc(*)cc7C6=O)cc5C)c(C)c3)C4=O)c(C)c2)cc1C` (repeat unit), for which the glass transition temperature stood at 182.00 °C.

Regarding `*C(=O)Oc1ccc(C2(c3ccc(OC(=O)c4ccc5c(c4)C(=O)N(c4ccc(-c6ccc(N7C(=O)c8ccc(*)cc8C7=O)cc6C)c(C)c4)C5=O)cc3)C3CC4CC(C3)CC2C4)cc1` (repeat unit), the glass transition temperature was found to be 222.00 °C. Take `*C(=O)Oc1ccc(C2(c3ccc(OC(=O)c4ccc5c(c4)C(=O)N(c4ccc(-c6ccc(N7C(=O)c8ccc(*)cc8C7=O)cc6C)c(C)c4)C5=O)cc3)CCC(C(C)(C)C)CC2)cc1` (repeat unit): the glass transition temperature was determined as 217.00 °C.

Consider `*C(=O)Oc1ccc(C2(c3ccc(OC(=O)c4ccc5c(c4)C(=O)N(c4ccc(-c6ccc(N7C(=O)c8ccc(*)cc8C7=O)cc6C)c(C)c4)C5=O)cc3)CCCCCCCCCCC2)cc1` (repeat unit), for which the glass transition temperature turned out to be 204.00 °C. `*C(=O)c1ccc(Oc2ccc(Oc3ccc(C(=O)c4ccc5c(c4)C(=O)N(c4ccc(N6C(=O)c7ccc(*)cc7C6=O)cc4)C5=O)cc3)cc2)cc1` (repeat unit) displayed a glass transition temperature of 236.00 °C. As to `*C(=O)c1ccc2c(c1)C(=O)N(c1ccc(Cc3cccc(N4C(=O)c5ccc(*)cc5C4=O)c3)cc1)C2=O` (repeat unit), the glass transition temperature is 281.00 °C. As for `*C(=O)c1ccc2c(c1)C(=O)N(c1ccc(Cc3ccccc3N3C(=O)c4ccc(*)cc4C3=O)cc1)C2=O` (repeat unit), the glass transition temperature was determined as 290.00 °C. `*CC(F)(F)/C(F)=C(/*)Cl` (repeat unit) came in with a glass transition temperature of -17.00 °C.

Turning to `*OC(COC(=O)c1ccc(-c2cc(CCCCCCCC)c(-c3ccc(C(*)=O)c(F)c3F)cc2CCCCCCCC)c(F)c1F)COc1ccc(/N=N/c2ccc(C#N)cc2)cc1` (repeat unit), the glass transition temperature amounted to 61.00 °C.

Molecule `*Oc1c(Cl)cc(C(C)(C)c2cc(Cl)c(OC(=O)c3ccc(OCCCCCCCCCCOc4ccc(C(*)=O)cc4)cc3)c(Cl)c2)cc1Cl` (repeat unit) showed a glass transition temperature of 140.00 °C.

Molecule `*Oc1ccc(S(=O)(=O)c2ccc(Oc3c(C)cc(-c4cc(C)c(*)c(C)c4)cc3C)cc2)cc1` (repeat unit) came in with a glass transition temperature of 280.20 °C. For `*Oc1ccc(S(=O)(=O)c2cccc3c(S(=O)(=O)c4ccc(Oc5c(C)cc(-c6cc(C)c(*)c(C)c6)cc5C)cc4)cccc23)cc1` (repeat unit), the glass transition temperature was 262.00 °C. In turn, `*c1c(C)cc(C(C)(C)c2cc(C)c(S(*)(=O)=O)c(C)c2)cc1C` (repeat unit) had a glass transition temperature of 230.00 °C. As to `*c1cc(C)c(*)s1` (repeat unit), the glass transition temperature worked out at 114.20 °C.

As for `*c1cc(C)c(Oc2ccc(S(=O)(=O)c3ccc(Oc4cc(C)c(C5(*)OC(=O)c6ccccc65)cc4C)cc3)cc2)cc1C` (repeat unit), the glass transition temperature was 269.00 °C. As for `*c1cc(CCCCCCOC(=O)COc2ccccc2)c(*)s1` (repeat unit), the glass transition temperature turned out to be 50.00 °C. In turn, `*c1cc(CCOC(=O)C(C)Br)c(*)s1` (repeat unit) returned a glass transition temperature of 49.00 °C. Molecule `*c1cc(CCOC(=O)NCCCC)c(*)s1` (repeat unit) came in with a glass transition temperature of 67.50 °C. `*c1cc(CCOCCOC)c(*)[nH]1` (repeat unit): the glass transition temperature was -43.00 °C. `*c1cc(OCCCC)cc(N2C(=O)c3ccc(Oc4ccc5c(c4)C(=O)N(*)C5=O)cc3C2=O)c1` (repeat unit) came in with a glass transition temperature of 237.00 °C. `*c1cc(OCCCCCCCC)cc(N2C(=O)c3ccc(Oc4ccc5c(c4)C(=O)N(*)C5=O)cc3C2=O)c1` (repeat unit): the glass transition temperature is 185.00 °C.

In turn, `*c1cc2c(cc1C)-c1cc(C)c(N3C(=O)c4ccc(-c5ccc6c(c5)C(=O)N(*)C6=O)cc4C3=O)cc1S2(=O)=O` (repeat unit) registered a glass transition temperature of 490.00 °C.

For `*c1ccc(-c2c(-c3ccc(-c4ccccc4)cc3)cc(-c3ccc(OCCCCCCOc4ccc(-c5cc(-c6ccc(-c7ccccc7)cc6)c(-c6ccc(-n7c(=O)c8cc9c(=O)n(*)c(=O)c9cc8c7=O)cc6)c(-c6ccc(-c7ccccc7)cc6)c5)cc4)cc3)cc2-c2ccc(-c3ccccc3)cc2)cc1` (repeat unit), the glass transition temperature came to 128.50 °C.

The molecule `*c1ccc(-c2cc(-c3ccccc3)c3cc(-c4ccc5nc(*)cc(-c6ccccc6)c5c4)ccc3n2)cc1` (repeat unit) registered a glass transition temperature of 395.00 °C. Next, `*c1ccc(-c2cc(CCCCCCCC)c(-c3ccc(-c4ccc(-c5sc(-c6ccc([Si](*)(C)C)s6)cc5CCCCCCCC)s4)s3)s2)s1` (repeat unit): 31.00 °C. In turn, `*c1ccc(-c2cc(CCCCCCCC)c(-c3ccc(-c4ccc(-c5sc(-c6ccc([Si](*)(CCCC)CCCC)s6)cc5CCCCCCCC)s4)s3)s2)s1` (repeat unit) had a glass transition temperature of -1.00 °C. As for `*c1ccc(-c2cc(CCCCCCOC(=O)COc3ccccc3)c(*)s2)s1` (repeat unit), the glass transition temperature was determined as 79.00 °C.

`*c1ccc(-c2ccc(-c3ccc(-c4cc(-c5ccccc5)c5cc(Oc6ccc7nc(*)cc(-c8ccccc8)c7c6)ccc5n4)cc3)cc2)cc1` (repeat unit) gave a glass transition temperature of 300.00 °C. `*c1ccc(-c2ccc(-c3ccc(-c4ccc(-c5cc(-c6ccccc6)c6cc(Oc7ccc8nc(*)cc(-c9ccccc9)c8c7)ccc6n5)cc4)cc3)cc2)cc1` (repeat unit) registered a glass transition temperature of 310.00 °C.

In turn, `*c1ccc(-c2ccc(-c3ccc(-c4ccc(-c5ccc6c(c5)C(=O)N(c5ccc(Oc7ccc(N8C(=O)c9ccc(*)cc9C8=O)cc7)cc5)C6=O)cc4)cc3)cc2)cc1` (repeat unit) gave a glass transition temperature of 244.00 °C. In turn, `*c1ccc(-c2ccc(-c3ccc(-n4c(=O)c5cc6c(=O)n(*)c(=O)c6c(C(F)(F)F)c5c4=O)cc3)cc2)cc1` (repeat unit) returned a glass transition temperature of 364.00 °C. `*c1ccc(-c2ccc(-c3ccc([Si](*)(C)C)s3)s2)s1` (repeat unit) registered a glass transition temperature of 45.00 °C. Take `*c1ccc(-c2ccc(-c3ccc([Si](CCCC)(CCCC)[Si](*)(CCCC)CCCC)s3)s2)s1` (repeat unit): the glass transition temperature was -5.00 °C. In turn, `*c1ccc(-c2ccc(-c3cnc4cc(Oc5ccc6nc(*)cnc6c5)ccc4n3)cc2)cc1` (repeat unit) came in with a glass transition temperature of 390.00 °C.

Molecule `*c1ccc(-c2ccc(-c3nc4ccccc4c(-c4ccc(Oc5ccc(-c6c(-c7ccccc7)c(*)nc7ccccc67)cc5)cc4)c3-c3ccccc3)cc2)cc1` (repeat unit) returned a glass transition temperature of 345.00 °C.

`*c1ccc(-c2ccc(-n3c(=O)c4c(C(F)(F)F)c5c(=O)n(*)c(=O)c5c(C(F)(F)F)c4c3=O)cc2C(F)(F)F)c(C(F)(F)F)c1` (repeat unit) returned a glass transition temperature of 304.00 °C. `*c1ccc(-c2ccc(-n3c(=O)c4cc5c(=O)n(*)c(=O)c5cc4c3=O)cc2F)c(F)c1` (repeat unit) yielded a glass transition temperature of 398.00 °C. In turn, `*c1ccc(-c2ccc(N(*)c3ccc(C)cc3)cc2)cc1` (repeat unit) displayed a glass transition temperature of 85.00 °C. For the molecule `*c1ccc(-c2ccc(N3C(=O)c4ccc(Oc5c(C)cc(C(C)(C)c6cc(C)c(Oc7ccc8c(c7)C(=O)N(*)C8=O)c(C)c6)cc5C)cc4C3=O)cc2C(F)(F)F)c(C(F)(F)F)c1` (repeat unit), the glass transition temperature is 262.00 °C.

The molecule `*c1ccc(C(c2ccc(N3C(=O)c4cc(-c5ccc([Si](C)(C)C)cc5)c(-c5cc6c(cc5-c5ccc([Si](C)(C)C)cc5)C(=O)N(*)C6=O)cc4C3=O)cc2)(C(F)(F)F)C(F)(F)F)cc1` (repeat unit) yielded a glass transition temperature of 365.00 °C.

Turning to `*c1ccc(C2(c3ccc(-c4cc(-c5ccccc5)c5cc(-c6ccc7nc(*)cc(-c8ccccc8)c7c6)ccc5n4)cc3)c3ccccc3C(=O)c3ccccc32)cc1` (repeat unit), the glass transition temperature was 417.00 °C.

`*c1ccc(Cc2ccc(N3C(=O)c4ccc(-c5ccc(-c6ccc(-c7ccc(-c8ccc(-c9ccc%10c(c9)C(=O)N(*)C%10=O)cc8)cc7)cc6)cc5)cc4C3=O)cc2)cc1` (repeat unit) returned a glass transition temperature of 244.00 °C. For `*c1ccc(Oc2ccc(-c3ccc(Oc4ccc(N5C(=O)c6cccc(Oc7c(C)cc(-c8cc(C)c(Oc9cccc%10c9C(=O)N(*)C%10=O)c(C)c8)cc7C)c6C5=O)cc4)cc3)cc2)cc1` (repeat unit), the glass transition temperature was found to be 290.00 °C. Turning to `*c1ccc(Oc2ccc(C3(c4ccc(Oc5ccc(N6C(=O)c7ccc(Oc8c(C)cc(C(C)(C)c9cc(C)c(Oc%10ccc%11c(c%10)C(=O)N(*)C%11=O)c(C)c9)cc8C)cc7C6=O)cc5)cc4)CC4CC3C3CCCC43)cc2)cc1` (repeat unit), the glass transition temperature stood at 262.00 °C. For `*c1ccc(Oc2ccc(N3C(=O)c4cc(-c5ccc([Si](C)(C)C)cc5)c(-c5cc6c(cc5-c5ccc([Si](C)(C)C)cc5)C(=O)N(*)C6=O)cc4C3=O)cc2)cc1` (repeat unit), the glass transition temperature was 348.00 °C. The molecule `*c1ccc2c(c1)C(=O)N(c1cc(OCCCC)cc(N3C(=O)c4ccc(C(*)(C(F)(F)F)C(F)(F)F)cc4C3=O)c1)C2=O` (repeat unit) returned a glass transition temperature of 246.00 °C. Next, `*c1ccc2c(c1)C(=O)N(c1cc(OCCCCCCCC)cc(N3C(=O)c4ccc(C(*)(C(F)(F)F)C(F)(F)F)cc4C3=O)c1)C2=O` (repeat unit): 195.00 °C; `*c1ccc2c(c1)C(=O)N(c1cc(OCCCCCCCCCCCCCCCC)cc(N3C(=O)c4ccc(C(*)(C(F)(F)F)C(F)(F)F)cc4C3=O)c1)C2=O` (repeat unit): 161.00 °C. On to `*c1ccc2c(c1)C(=O)N(c1cc(OCCN(CC)c3ccc(/N=N/c4ccc([N+](=O)[O-])cc4)cc3)cc(N3C(=O)c4ccc(C(*)(C(F)(F)F)C(F)(F)F)cc4C3=O)c1)C2=O` (repeat unit), for which the glass transition temperature is 210.00 °C.
